{"source": "paper PMC10510716", "assay": "Paal-Knorr pyrrole formation between a side-chain 1,4-diketone (DOP1, unmasked from 5-methylfuran in TFA/m-cresol 9:1) and a side-chain hydrazide (Nu2) or aminooxy group (Nu5); crude redissolved in mQ water", "conditions": "the molecule shown is the open-chain precursor, 29-membered ring, pH ~2.5, 5.0 mM", "data": [{"molecule": "CC(=O)CCC(=O)CCC(=O)NCCC[C@H](NC(=O)[C@H](Cc1ccc(O)cc1)NC(C)=O)C(=O)N[C@@H](CCCNC(=N)N)C(=O)NCC(=O)N[C@@H](CC(=O)O)C(=O)N[C@@H](CCCNC(=O)CON)C(=O)N[C@@H](CO)C(=O)N[C@@H](Cc1c[nH]c2ccccc12)C(N)=O", "note": "[Ac-Y-Orn(4,7-dioxooctanoyl)*-R-G-D-Orn(COCH2ONH2)*-S-W-NH2]", "values": [{"measurement": "ring closure, overall yield", "result": 8.1, "unit": "%"}]}]}
